Assay results taken from article PMC6409996, “Pharmacodynamics and Pharmacokinetics of a New Type of Compound Lansoprazole Capsule in Gastric Ulcer Rats and Beagle Dogs: Importance of Adjusting Oxidative Stress and Inflammation” (Pharmaceutics, 2019).

How the values were obtained:
[1] = system: glacial acetic-acid-induced gastric ulcer; experiment: Histopathological observation (H&E) of gastric mucosa, glacial acetic-acid-induced gastric ulcer; assay type: in vivo, rat; conditions: treatment with LSZ compared to the model group
Protocol: Cross-sections with a thickness of 4 µm were then papered for hematoxylin and eosin (H&E) staining. All specimens were assessed under a light microscopy.

[2] = system: glacial acetic-acid-induced gastric ulcer; experiment: Macroscopic gastric ulcer assay in the glacial acetic-acid-induced gastric ulcer model; assay type: in vivo, rat
Protocol: The gastric ulcer index (UI) was the total area of ulcer. The gastroprotection (%) was calculated and used for macroscopic gastric ulcer assay.

VEGF [3] = experiment: Western blotting determination of gastric tissue for VEGF; assay type: in vivo, rat; conditions: LSZ versus model group, p < 0.01
Protocol: (§1) The homogenate was centrifuged at a force of 12,000 g for 30 min at 4 °C and protein qualification was carried out using a BCA kit. The total protein extract (25 μg per lane) was separated on SDS-polyacrylamide gels and transferred onto PVDF membranes. Nonspecific binding sites on the membrane were blocked by PBS containing 0.1% Tween-20 with 5% bovine serum albumin, which was followed by incubation with rabbit polyclonal primary antibodies against VEGF and COX-2 and β-actin overnight at 4 °C. Immunoreactive bands were visualized using the enhanced chemiluminescent kit. Bands were measured using the Quality One analysis software and the density of each band was normalized to β-actin.

VEGF [4] = experiment: Immunohistochemistry evaluation of gastric tissue for VEGF; assay type: in vivo, rat; conditions: the LSZ group, p < 0.01
Protocol: (§2) Gastric tissues were post fixed in 4% paraformaldehyde overnight at 4 °C before routine paraffin sections (4 μm) were prepared for immunohistochemical staining. Paraffin-embedded slices of tissues were incubated overnight at 4 °C with primary rabbit anti-VEGF and anti-COX-2 antibody (1:200, Thermo). After rinsing, sections were incubated in biotinylated goat anti-rabbit IgG (1:200, Maixin) at 37 °C for 30 min and were subsequently incubated in streptavidin-peroxidase conjugate (1:200, Maixin) at 37 °C for 30 min. The sections were developed with 3,3′-diaminobenzidine (DAB) in a chromogen solution and counter-stained with hematoxylin. Images were obtained using an Olympus BX-61microscope (Tokyo, Japan).

[5] = capsules containing enteric-coated granules; cited from earlier work
COX-2 [6] = experiment: Immunohistochemistry evaluation of gastric tissue for COX-2; assay type: in vivo, rat; conditions: the LSZ group, p < 0.01
Protocol: as §2

MDA = experiment: Measurement of MDA (lipid peroxidation, TBARS) in gastric ulcer rats; conditions: 2.7 mg/kg, seven consecutive days, mean ± SD, n = 6
[7] = Stability of lansoprazole in dog plasma (method validation); assay type: in vitro ADME; conditions: n = 3
Text: The method was fully validated in accordance with the US Food and Drug Administration (FDA) guidelines. Specificity, linearity, LLOQ, precision, accuracy, recovery, matrix effect and stability were all experimentally investigated.

H^+-K^+-ATP enzyme = H^+-K^+-ATP enzyme (Rattus norvegicus, UniProt P09626); experiment: Measurement of H+-K+-ATP enzyme activity in gastric ulcer rats; conditions: 2.7 mg/kg, seven consecutive days, mean ± SD, n = 6
Chain of H^+-K^+-ATP enzyme (P09626 whole entry): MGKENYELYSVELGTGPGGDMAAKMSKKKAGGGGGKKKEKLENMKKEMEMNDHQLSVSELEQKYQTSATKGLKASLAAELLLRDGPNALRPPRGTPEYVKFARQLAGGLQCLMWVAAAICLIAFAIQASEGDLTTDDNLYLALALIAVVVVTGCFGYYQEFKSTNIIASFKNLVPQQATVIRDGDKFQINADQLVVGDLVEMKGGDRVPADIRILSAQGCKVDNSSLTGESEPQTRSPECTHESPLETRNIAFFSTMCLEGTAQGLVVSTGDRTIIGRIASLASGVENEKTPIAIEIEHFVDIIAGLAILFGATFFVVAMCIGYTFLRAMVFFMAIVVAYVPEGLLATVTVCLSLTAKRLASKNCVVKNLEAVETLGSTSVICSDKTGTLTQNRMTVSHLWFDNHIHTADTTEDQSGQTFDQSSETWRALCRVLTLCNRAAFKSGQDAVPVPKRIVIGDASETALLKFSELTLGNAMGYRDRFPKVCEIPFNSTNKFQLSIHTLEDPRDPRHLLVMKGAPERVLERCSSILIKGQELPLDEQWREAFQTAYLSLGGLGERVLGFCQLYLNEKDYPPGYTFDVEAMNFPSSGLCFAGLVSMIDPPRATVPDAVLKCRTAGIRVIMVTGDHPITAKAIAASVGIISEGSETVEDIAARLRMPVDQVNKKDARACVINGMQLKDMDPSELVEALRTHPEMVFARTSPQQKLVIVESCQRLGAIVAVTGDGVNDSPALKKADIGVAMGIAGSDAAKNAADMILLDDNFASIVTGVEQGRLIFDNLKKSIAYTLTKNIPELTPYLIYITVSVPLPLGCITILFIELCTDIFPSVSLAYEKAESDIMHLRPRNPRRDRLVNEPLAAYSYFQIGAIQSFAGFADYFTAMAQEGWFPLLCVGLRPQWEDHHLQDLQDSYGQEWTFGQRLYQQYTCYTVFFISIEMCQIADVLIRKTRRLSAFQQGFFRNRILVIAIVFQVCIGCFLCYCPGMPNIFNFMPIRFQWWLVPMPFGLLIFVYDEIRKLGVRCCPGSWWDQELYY
Chain of H^+-K^+-ATP enzyme (P18598 whole entry partner): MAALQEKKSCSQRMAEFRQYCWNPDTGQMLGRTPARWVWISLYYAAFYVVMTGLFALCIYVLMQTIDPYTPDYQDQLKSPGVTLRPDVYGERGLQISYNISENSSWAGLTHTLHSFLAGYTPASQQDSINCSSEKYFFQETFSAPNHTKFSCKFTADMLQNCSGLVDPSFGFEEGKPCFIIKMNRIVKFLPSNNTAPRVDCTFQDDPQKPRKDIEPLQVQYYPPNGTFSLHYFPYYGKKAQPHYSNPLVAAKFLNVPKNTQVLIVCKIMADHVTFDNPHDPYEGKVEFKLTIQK

COX-2 [8] = experiment: Western blotting determination of gastric tissue for COX-2; assay type: in vivo, rat; conditions: LSZ versus model group, p < 0.01
Protocol: as §1

SOD = experiment: Measurement of SOD level in gastric ulcer rats; conditions: 2.7 mg/kg, seven consecutive days, mean ± SD, n = 6
[9] = nominal concentration 10 ng·mL^−1
[10] = nominal concentration 125 ng·mL^−1
[11] = nominal concentration 2000 ng·mL^−1

Stability in dog plasma, 3 Freeze-Thaw Cycles [7, 9]: 9.64 | Stability in dog plasma, 45 Days, −20 °C [7, 9]: 9.11 | Stability in dog plasma, 10 h, 4 °C [7, 9]: 9.35 | Stability in dog plasma, 24 h, Room Temperature [7, 9]: 10.00 | Stability in dog plasma, 3 Freeze-Thaw Cycles [7, 10]: 119.79 | Stability in dog plasma, 45 Days, −20 °C [7, 10]: 123.82 | Stability in dog plasma, 10 h, 4 °C [7, 10]: 124.51 | Stability in dog plasma, 24 h, Room Temperature [7, 10]: 132.80 | Stability in dog plasma, 3 Freeze-Thaw Cycles [7, 11]: 2128.46 | Stability in dog plasma, 45 Days, −20 °C [7, 11]: 1853.17 | Stability in dog plasma, 10 h, 4 °C [7, 11]: 2088.22 | Stability in dog plasma, 24 h, Room Temperature [7, 11]: 2024.38
Structure (SMILES): Cc1c(OCC(F)(F)F)ccnc1C[S+]([O-])c1nc2ccccc2[nH]1 (stereo not drawn) [LSZ, Lansoprazole]
Histological evaluation of gastric mucosa (submucosal edema, epithelial cell loss) [1]: protective effect on gastric mucosa | Gastroprotection (%) ([2]; rats, intragastric, 2.7 mg/kg, seven consecutive days): 29.8% | UI ([2]; rats, intragastric, 2.7 mg/kg, seven consecutive days, UI = total area of ulcer, mean ± SD, n = 6): 28.30 ± 7.29 | Macroscopic gastric lesions ([2]; treatment with LSZ compared to the model group): significantly reduced | Expression of VEGF protein (Western blot) (VEGF [3]): significantly increase | Expression of VEGF (immunohistochemistry) (VEGF [4]): increased expression | Time of peak concentration after oral administration [5]: ≤ 1 ± 2 h | Expression of COX-2 (immunohistochemistry) (COX-2 [6]): increased expression | MDA (MDA): 75.32 ± 10.77 μmol*g^−1 Pro | H^+-K^+-ATP enzyme activity (H^+-K^+-ATP enzyme): 7.91 ± 0.76 mmol/g/h | Expression of COX-2 protein (Western blot) (COX-2 [8]): significantly increase | SOD (SOD): 170.12 ± 13.19 μmol*g^−1 Pro
